Earlier results as cited in US20170333389A1, “Method of Ameliorating Clotting Pathologies and Related Materials and Methods” (The Ohio State University, priority 2012, published 2017).

Legend:
platelet aggregation = conditions: low-dose aspirin (81 mg) treated healthy volunteers
[1] = patients who have had a TIA or stroke

## CC(=O)Oc1ccccc1C(=O)O [aspirin]
Platelet aggregation
  platelet function recovery after withdrawal: 48 to 72 h
Recurrent stroke; [1]
  decrease of relative risk of non-fatal ischemic stroke: 19%
  decrease of relative risk of recurrent stroke, myocardial infarction, and vascular death: 13%

## CC(=O)CC(c1ccccc1)c1c(O)c2ccccc2oc1=O (centres unmarked) [warfarin]
Recurrent stroke; patients with stroke due to atrial fibrillation, dose-adjusted
  decrease of relative stroke risk: 62%

## CC(C)c1c(C(=O)Nc2ccccc2)c(-c2ccccc2)c(-c2ccc(F)cc2)n1CC[C@@H](O)C[C@@H](O)CC(=O)O [atorvastatin]
Recurrent stroke; patients with stroke, high dose, over 5 years
  decrease of risk of recurrent stroke: about 2%
